pEC50: −log10 of the molar value. Entries after “also recorded” stand apart in the source; their conditions may differ.
What was measured:
[1] = system: delta mutant strain of SARS-CoV-2; format: cell-based; conditions: for pEC50: read-out: Inhibition against viral replication of delta mutant strain EC50
[2] = system: South African mutant strain of SARS-CoV-2; format: cell-based; conditions: for pEC50: read-out: Inhibition against viral replication of South African mutant strain EC50

| SMILES | inhibition against the delta strain [1] | pEC50 [1] | inhibition against the South African strain [2] | pEC50 [2] |
| --- | --- | --- | --- | --- |
| COc1cc2c3cc1Oc1c(OC)c(OC)cc4c1[C@H](Cc1ccc(cc1)Oc1cc(ccc1C(N)=O)C[C@H]3N(C)CC2)N(C)CC4 [Compound 4] | strong inhibition; also recorded: significantly inhibited | 5.82 |  |  |
| CCCCNC(=O)Oc1ccc2cc1Oc1ccc(cc1)C[C@H]1c3c(cc(OC)c(OC)c3Oc3cc4c(cc3OC)CCN(C)[C@@H]4C2)CCN1C [Compound 2] | strong inhibition; also recorded: significantly inhibited | 6.52 |  |  |
| CNC(=O)c1ccc2cc1Oc1ccc(cc1)C[C@H]1c3c(cc(OC)c(OC)c3Oc3cc4c(cc3OC)CCN(C)[C@@H]4C2)CCN1C [Compound 5] |  |  | strong inhibition; also recorded: significantly inhibited | 5.57 |
| COc1cc2c3cc1Oc1c(OC)c(OC)cc4c1[C@H](Cc1ccc(cc1)Oc1cc(ccc1C(=O)NC1CC1)C[C@H]3N(C)CC2)N(C)CC4 [Compound 6] |  |  | strong inhibition; also recorded: significantly inhibited | 5.66 |
